The pIC50 is −log10 of the IC50, conventionally taken in molar units.

The target of assay [1] is T1, P. falciparum deoxyhypusine synthase (DHS) (Plasmodium falciparum, UniProt Q9GSW0).
T1 construct: recombinant, truncated P. falciparum DHS, N-terminally histidine-tagged
T1 sequence (Q9GSW0 1-496): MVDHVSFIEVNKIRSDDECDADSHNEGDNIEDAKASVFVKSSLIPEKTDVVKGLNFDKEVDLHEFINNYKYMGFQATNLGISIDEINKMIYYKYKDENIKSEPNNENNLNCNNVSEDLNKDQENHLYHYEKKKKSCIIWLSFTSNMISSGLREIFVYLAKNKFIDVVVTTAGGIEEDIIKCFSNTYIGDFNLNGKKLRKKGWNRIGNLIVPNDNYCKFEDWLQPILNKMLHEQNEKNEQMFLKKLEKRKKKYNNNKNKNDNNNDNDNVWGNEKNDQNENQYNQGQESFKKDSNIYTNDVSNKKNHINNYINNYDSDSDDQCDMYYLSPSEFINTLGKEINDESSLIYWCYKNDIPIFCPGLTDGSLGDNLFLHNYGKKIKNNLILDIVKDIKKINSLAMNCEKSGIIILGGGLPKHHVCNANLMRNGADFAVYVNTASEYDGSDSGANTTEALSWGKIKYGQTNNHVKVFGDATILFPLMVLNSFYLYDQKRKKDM
The assay is described as follows: deoxyhypusine formation assay with purified recombinant PfDHS, GC/MS readout. Type of assay: biochemical.

Assay [2] deals with T1, P. falciparum deoxyhypusine synthase (DHS). Description: deoxyhypusine formation assay with purified recombinant PfDHS, GC/MS readout; partial (max […]) inhibition. It counts as biochemical.

pIC50: −log10 of the molar value.

`O=C(O)c1cc(O)c2cccc(O)c2n1` [C, 4,8-Dihydroxyquinoline-2-carboxylic acid]: in assay [1], the pIC50 was 6.95. For the compound `O=C(Nc1cccc2[nH]ccc12)c1cc2ccc(Br)cc2s1` [6-bromo-N-(1H-indol-4yl)-1-benzothiophene-2-carboxamide], the pIC50 in assay [2] was 6.47.

(Values after publication PMC9030622, “Investigation of an Allosteric Deoxyhypusine Synthase Inhibitor in P. falciparum” (Molecules, 2022).)
